Test results: patent US12084472B2 (Ardelyx, Inc., priority 2015, dated 2024)
Structures can show the parent of a compound that is named as a salt.

molecular target: T1, human TGR5 (Homo sapiens, UniProt Q8TDU6); assay: Cell-based TGR5 assay (cAMP generation, HTRF); conditions: HEK293 cells stably transfected with human TGR5; cAMP by HTRF; 30 minutes at 37° C.; read-out: pEC50 Human TGR5 (converted)
T1 construct: expressed in transfected cells; host or cells: HEK293
T1 sequence (Q8TDU6 1-330): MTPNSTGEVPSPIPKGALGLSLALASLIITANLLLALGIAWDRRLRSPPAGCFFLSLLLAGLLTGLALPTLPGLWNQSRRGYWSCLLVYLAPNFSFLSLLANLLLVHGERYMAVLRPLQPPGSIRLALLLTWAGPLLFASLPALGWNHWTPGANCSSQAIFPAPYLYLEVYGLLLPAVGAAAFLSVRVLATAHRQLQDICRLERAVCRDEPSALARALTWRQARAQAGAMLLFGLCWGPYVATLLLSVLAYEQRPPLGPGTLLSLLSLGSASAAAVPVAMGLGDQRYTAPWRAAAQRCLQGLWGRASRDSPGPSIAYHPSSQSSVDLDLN
Summary of the method: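 Read-out was HTRF detection of cAMP, converted to concentration via a standard curve and fitted (3-parameter logistic) for pEC50 and maximal response. Agonist stimulation used HEK293 cells stably transfected with human TGR5, incubated 30 min at 37° C in IBMX-containing buffer at 0.05 nM to 10 μM compound.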

First: CC(C)Oc1ccccc1-c1ccncc1C1(NCc2cc(Cl)ccc2Cl)CC1 [Compound I-2, N-[(2,5-dichlorophenyl)methyl]-1-{4-[2-(propan-2-yloxy)phenyl]pyridin-3-yl}cyclopropan-1-amine]
Second: Clc1ccc(Cl)c(CNC2(c3cnccc3-c3ccccc3Cl)CC2)c1 [Compound I-16, 1-[4-(2-chlorophenyl)pyridin-3-yl]-N-[(2,5-dichlorophenyl)methyl]cyclopropan-1-amine]
The EC50 of the first is lower: under 100 nM for the first, 1260 to 10000 nM for the second.

`O=C(O)CN1CCN(CCNC(=O)CCCCc2cc(Cl)c(COC3(c4cnccc4-c4ccccc4OC4CC4)CC3)cc2Cl)CC1` [Compound I-91, 2-(4-(2-(5-(2,5-dichloro-4-((1-(4-(2-cyclopropoxyphenyl)pyridin-3-yl)cyclopropoxy)methyl)phenyl)pentanamido)ethyl)piperazin-1-yl)acetic acid] and `O=C(NCCCCc1cc(Cl)c(COC2(c3cnccc3-c3ccccc3OC3CC3)CC2)cc1Cl)[C@@H](O)[C@@H](O)[C@H](O)[C@@H](O)CN1CCOCC1` (stereo in doubt) [Compound I-179, (2S,3S,4R,5S)-N-{4-[2,5-dichloro-4-({1-[4-(2-cyclopropoxyphenyl)pyridin-3-yl]cyclopropoxy}methyl)phenyl]butyl}-2,3,4,5-tetrahydroxy-6-(morpholin-4-yl)hexanamide] cannot be ordered by EC50: under 100 nM for the first, under 100 nM for the second.

Compared with `Cc1ccc(SCCCC(=O)NC[C@H](O)[C@@H](O)[C@H](O)[C@H](O)CO)cc1COC1(c2cnccc2-c2ccccc2OC2CC2)CC1` [Compound I-651, 4-{[3-({1-[4-(2-cyclopropoxyphenyl)pyridin-3-yl]cyclopropoxy}methyl)-4-methylphenyl]sulfanyl}-N-[(2S,3R,4R,5R)-2,3,4,5,6-pentahydroxyhexyl]butanamide], `CNS(=O)(=O)CCN(C[C@H](O)[C@@H](O)[C@H](O)[C@H](O)CO)C(=O)CCCSc1ccc(Cl)c(COC2(c3cnccc3-c3ccccc3OC3CC3)CC2)c1` [Compound I-694, 4-{[4-chloro-3-({1-[4-(2-cyclopropoxyphenyl)pyridin-3-yl]cyclopropoxy}methyl)phenyl]sulfanyl}-N-[2-(methylsulfamoyl)ethyl]-N-[(2S,3R,4R,5R)-2,3,4,5,6-pentahydroxyhexyl]butanamide] is higher in EC50: under 100 nM for the first, 126 to 1000 nM for the second.

Compared with `Cc1ccc(SCCCCN(CCCCO)C(=O)[C@@H](O)[C@@H](O)[C@H](O)[C@@H](O)CO)cc1COC1(c2cnccc2-c2ccccc2OC2CC2)CC1` [Compound I-541, (2S,3S,4R,5S)-N-(4-{[3-({1-[4-(2-cyclopropoxyphenyl)pyridin-3-yl]cyclopropoxy}methyl)-4-methylphenyl]sulfanyl}butyl)-2,3,4,5,6-pentahydroxy-N-(4-hydroxybutyl)hexanamide], `O=C([C@@H](O)[C@@H](O)[C@H](O)[C@@H](O)CO)N(CCCCO)CCCCCSc1ccc(Cl)c(CNC2(c3cnccc3-c3ccccc3OC3CC3)CC2)c1` [Compound I-600, (2S,3S,4R,5S)-N-[5-({4-chloro-3-[({1-[4-(2-cyclopropoxyphenyl)pyridin-3-yl]cyclopropyl}amino)methyl]phenyl}sulfanyl)pentyl]-2,3,4,5,6-pentahydroxy-N-(4-hydroxybutyl)hexanamide] is lower in EC50: 126 to 1000 nM for the first, under 100 nM for the second.

`Cc1ccc(C(C)CCCC(=O)N(C)C[C@H](O)[C@@H](O)[C@H](O)[C@H](O)CO)cc1CNC1(c2cnccc2-c2ccccc2OC2CC2)CC1` (stereo partly drawn) [Compound I-352, 5-{3-[({1-[4-(2-cyclopropoxyphenyl)pyridin-3-yl]cyclopropyl}amino)methyl]-4-methylphenyl}-N-methyl-N-[(2S,3R,4R,5R)-2,3,4,5,6-pentahydroxyhexyl]hexanamide] and `Cc1ccc(C(C)CCCC(=O)NC[C@H](O)[C@@H](O)[C@H](O)[C@H](O)CO)cc1CNC1(c2cnccc2-c2ccccc2OC2CC2)CC1` (stereo partly drawn) [Compound I-257, 5-[3-[([1-[4-(2-cyclopropoxyphenyl)pyridin-3-yl]cyclopropyl]amino)methyl]-4-methylphenyl]-N-[(2S,3R,4R,5R)-2,3,4,5,6-pentahydroxyhexyl]hexanamide dihydrochloride] cannot be ordered by EC50: under 100 nM for the first, under 100 nM for the second.

Compared with `FC(F)(F)c1ccc(Cl)cc1CNC1(c2cnccc2-c2ccccc2OC2CC2)CC1` [Compound I-30, N-{[5-chloro-2-(trifluoromethyl)phenyl]methyl}-1-[4-(2-cyclopropoxyphenyl)pyridin-3-yl]cyclopropan-1-amine], `Clc1cc(Cl)cc(CNC2(c3cnccc3-c3ccccc3OC3CC3)CC2)c1` [Compound I-44, 1-[4-(2-cyclopropoxyphenyl)pyridin-3-yl]-N-[(3,5-dichlorophenyl)methyl]cyclopropan-1-amine] is higher in EC50: 126 to 1000 nM for the first, 1260 to 10000 nM for the second.

First: CN(CCCCc1cc(Cl)c(COC2(c3cnccc3-c3ccccc3OC3CC3)CC2)cc1Cl)C(=O)NC[C@H](O)[C@@H](O)[C@H](O)[C@H](O)CO (stereo in doubt) [Compound I-204, 1-{4-[2,5-dichloro-4-({1-[4-(2-cyclopropoxyphenyl)pyridin-3-yl]cyclopropoxy}methyl)phenyl]butyl}-1-methyl-3-[(2S,3R,4R,5R)-2,3,4,5,6-pentahydroxyhexyl]urea]
Second: O=C(O)CCCNC(=O)N(CCCCc1cc(Cl)c(COC2(c3cnccc3-c3ccccc3OC3CC3)CC2)cc1Cl)C[C@H](O)[C@@H](O)[C@H](O)[C@H](O)CO [Compound I-199, 4-[({4-[2,5-dichloro-4-({1-[4-(2-cyclopropoxyphenyl)pyridin-3-yl]cyclopropoxy}methyl)phenyl]butyl}[(2S,3R,4R,5R)-2,3,4,5,6-pentahydroxyhexyl]carbamoyl)amino]butanoic acid]
The EC50 of the first is lower: under 100 nM for the first, 126 to 1000 nM for the second.

`CC(CCCC(=O)N(C)C[C@H](O)[C@@H](O)[C@H](O)[C@H](O)CO)c1cc(Cl)c(COC2(c3cnccc3-c3ccccc3OC3CC3)CC2)cc1Cl` (stereo partly drawn) [Compound I-162, 5-[2,5-dichloro-4-({1-[4-(2-cyclopropoxyphenyl)pyridin-3-yl]cyclopropoxy}methyl)phenyl]-N-methyl-N-[(2S,3R,4R,5R)-2,3,4,5,6-pentahydroxyhexyl]hexanamide] and `CCN(C[C@H](O)[C@@H](O)[C@H](O)[C@H](O)CO)C(=O)CCCC(C)c1ccc(Cl)c(COC2(c3cnccc3-c3ccccc3OC3CC3)CC2)c1` (stereo partly drawn) [Compound I-373, 5-[4-chloro-3-({1-[4-(2-cyclopropoxyphenyl)pyridin-3-yl]cyclopropoxy}methyl)phenyl]-N-ethyl-N-[(2S,3R,4R,5R)-2,3,4,5,6-pentahydroxyhexyl]hexanamide] cannot be ordered by EC50: under 100 nM for the first, under 100 nM for the second.

Compared with `CC(=O)NS(=O)(=O)c1ccc(Cl)c(COC2(c3cnccc3-c3ccccc3OC3CC3)CC2)c1` [Compound I-729, N-[[4-chloro-3-([1-[4-(2-cyclopropoxyphenyl)pyridin-3-yl]cyclopropoxy]methyl)benzene]sulfonyl]acetamide], `CS(=O)(=O)CCN(CCCCNS(=O)(=O)c1ccc(Cl)c(COC2(c3cnccc3-c3ccccc3OC3CC3)CC2)c1)C(=O)[C@@H](O)[C@@H](O)[C@H](O)[C@@H](O)CO` [Compound I-457, (2S,3S,4R,5S)-N-{4-[4-chloro-3-({1-[4-(2-cyclopropoxyphenyl)pyridin-3-yl]cyclopropoxy}methyl)benzenesulfonamido]butyl}-2,3,4,5,6-pentahydroxy-N-(2-methanesulfonylethyl) hexanamide] is lower in EC50: 1260 to 10000 nM for the first, under 100 nM for the second.

`CSc1cnc(C)cc1CNC1(c2cnccc2-c2ccccc2OC2CC2)CC1` [Compound I-42, 1-[4-(2-cyclopropoxyphenyl)pyridin-3-yl]-N-{[2-methyl-5-(methylsulfanyl)pyridin-4-yl]methyl}cyclopropan-1-amine] and `O=C(NCCCC1(c2ccc(Cl)c(CNC3(c4cnccc4-c4ccccc4OC4CC4)CC3)c2)CC1)[C@@H](O)[C@@H](O)[C@H](O)[C@@H](O)CO` [Compound I-382, (2S,3S,4R,5S)-N-[3-(1-[4-chloro-3-[([1-[4-(2-cyclopropoxyphenyl)pyridin-3-yl]cyclopropyl]amino)methyl]phenyl]cyclopropyl)propyl]-2,3,4,5,6-pentahydroxyhexanamide] cannot be ordered by EC50: under 100 nM for the first, under 100 nM for the second.

Compared with `CN(C)C(=O)CN(C[C@H](O)[C@@H](O)[C@H](O)[C@H](O)CO)C(=O)CCCCc1cc(Cl)c(COC2(c3cnccc3-c3ccccc3OC3CC3)CC2)cc1Cl` [Compound I-221, 5-[2,5-dichloro-4-({1-[4-(2-cyclopropoxyphenyl)pyridin-3-yl]cyclopropoxy}methyl)phenyl]-N-[(dimethylcarbamoyl)methyl]-N-[(2S,3R,4R,5R)-2,3,4,5,6-pentahydroxyhexyl]pentanamide], `O=C(O)CCN(C[C@H](O)[C@@H](O)[C@H](O)[C@H](O)CO)C(=O)CCCCc1cc(Cl)c(CNC2(c3cnccc3-c3ccccc3OC3CC3)CC2)cc1Cl` [Compound I-178, 3-(5-{2,5-dichloro-4-[({1-[4-(2-cyclopropoxyphenyl)pyridin-3-yl]cyclopropyl}amino)methyl]phenyl}-N-[(2S,3R,4R,5R)-2,3,4,5,6-pentahydroxyhexyl]pentanamido)propanoic acid] is higher in EC50: under 100 nM for the first, 126 to 1000 nM for the second.

For `CCNC(=O)CCN(C[C@H](O)[C@@H](O)[C@H](O)[C@H](O)CO)C(=O)CCCC(C)c1ccc(Cl)c(CNC2(c3cnccc3-c3ccccc3OC3CC3)CC2)c1` (stereo partly drawn) [Compound I-344, 5-{4-chloro-3-[({1-[4-(2-cyclopropoxyphenyl)pyridin-3-yl]cyclopropyl}amino)methyl]phenyl}-N-[2-(ethylcarbamoyl)ethyl]-N-[(2S,3R,4R,5R)-2,3,4,5,6-pentahydroxyhexyl]hexanamide], the EC50 was 126 to 1000 nM.
